Reference: patent US9862708B2, “Pyrazolone compounds and uses thereof” (Tempest Therapeutics, Inc., priority 2014, dated 2018)

target: T1, human PPARα (Homo sapiens, UniProt Q07869); assay: Human PPARα Reporter Assay (luciferase, Indigo Biosciences); type: cell-based; conditions: antagonism; luciferase reporter cells, overnight incubation; read-out: PPARα IC50
T1 construct: host or cells: proprietary non-human mammalian cells
T1 sequence (Q07869 1-468): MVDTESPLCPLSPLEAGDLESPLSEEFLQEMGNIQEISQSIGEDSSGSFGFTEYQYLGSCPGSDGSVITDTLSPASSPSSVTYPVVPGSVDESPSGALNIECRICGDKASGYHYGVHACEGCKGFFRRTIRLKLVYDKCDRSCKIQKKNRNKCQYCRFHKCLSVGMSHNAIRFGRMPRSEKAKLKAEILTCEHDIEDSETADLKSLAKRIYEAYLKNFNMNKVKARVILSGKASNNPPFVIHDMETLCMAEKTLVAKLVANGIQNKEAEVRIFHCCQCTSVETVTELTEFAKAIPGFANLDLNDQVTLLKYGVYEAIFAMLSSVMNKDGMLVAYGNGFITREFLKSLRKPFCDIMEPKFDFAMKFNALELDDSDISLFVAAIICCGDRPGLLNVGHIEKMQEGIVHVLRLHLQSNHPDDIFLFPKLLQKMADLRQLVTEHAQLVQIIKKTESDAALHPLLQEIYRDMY
Method: Human PPARα Reporter Assay
The screening of test compounds for agonist or antagonist activities against human PPARα receptors was performed using a commercial kit, Human PPARα Reporter Assay System (Indigo Biosciences, Cat. #IB00111).
This nuclear receptor assay system utilizes proprietary non-human mammalian cells engineered to provide constitutive, high-level expression of Human PPARα. Because these cells incorporate a PPARα-responsive luciferase reporter gene, quantifying expressed luciferase activity provides a sensitive surrogate measure of PPARα activity in the treated cells. The primary application of this reporter assay system is in the screening of test samples to quantify any functional activity, either agonist or antagonist, that they may exert against human PPARα.
Briefly, reporter cells are dispensed into wells of the assay plate and then immediately dosed with test compounds. Following an overnight incubation, the treatment media is discarded and Luciferase Detection Reagent (LDR) is added. The intensity of light emission from the ensuing luciferase reaction provides a sensitive measure that is directly proportional to the relative level of PPARα activation in the reporter cells.

Row | SMILES | IC50 [nM]
1 | Cc1ccc(N2N=C(CCCc3ccc(OC(C)(C)C(=O)O)cc3)C3(CCCC3)C2=O)cc1C [Example 31, 2-(4-(3-(3-(3,4-dimethylphenyl)-4-oxo-2,3-diazaspiro[4,4]non-1-en-1-yl)propyl)phenoxy)-2-methylpropanoic acid] | 2.6
2 | CC(C)(Oc1ccc(CCCC2=NN(c3ccc(C(F)(F)F)cc3)C(=O)C2(C)C)cc1)C(=O)C(F)(F)F [Example 44, 4,4-dimethyl-3-(3-(4-((4,4,4-trifluoro-2-methyl-3-oxobutan-2-yl)oxy)phenyl)propyl)-1-(4-(trifluoromethyl)phenyl)-1H-pyrazol-5(4H)-one] | 610
3 | CC(C)(Oc1ccc(CCCC2=NN(c3cccc(C(F)(F)F)c3)C(=O)C2(C)C)cc1)C(=O)O [Example 20, 2-(4-(3-(4,4-dimethyl-5-oxo-1-(3-(trifluoromethyl)phenyl)-4,5-dihydro-1H-pyrazol-3-yl)propyl)phenoxy)-2-methylpropanoic acid] | 19
4 | CC(C)(CN)Oc1ccc(CCCC2=NN(c3ccc(C(F)(F)F)cc3)C(=O)C23CCCC3)cc1 [Example 45, 4-(3-(4-((1-amino-2-methylpropan-2-yl)oxy)phenyl)propyl)-2-(4-(trifluoromethyl)phenyl)-2,3-diazaspiro[4,4]non-3-en-1-one] | 840
5 | CC(C)(Oc1ccc(CCCC2=NN(Cc3ccc(C(C)(C)C)cc3)C(=O)C2(C)C)cc1)C(=O)O [Example 1, 2-(4-(3-(1-(4-(tert-butyl)benzyl)-4,4-dimethyl-5-oxo-4,5-dihydro-1H-pyrazol-3-yl)propyl)phenoxy)-2-methylpropanoic acid] | 15
6 | CC(C)(Oc1ccc(CCCC2=NN(Cc3ccc(C(F)(F)F)cc3)C(=O)C23CCCC3)cc1)C(=O)O [Example 34, 2-methyl-2-(4-(3-(4-oxo-3-(4-(trifluoromethyl)benzyl)-2,3-diazaspiro[4,4]non-1-en-1-yl)propyl)phenoxy)propanoic acid] | 960
7 | CC(C)(Oc1ccc(CCCC2=NN(c3ccc(C(F)(F)F)cc3)C(=O)C23CCCC3)cc1)C(=O)NCC(F)(F)F [Example 27, 2-methyl-2-(4-(3-(4-oxo-3-(4-(trifluoromethyl)phenyl)-2,3-diazaspiro[4,4]non-1-en-1-yl)propyl)phenoxy)-N-(2,2,2-trifluoroethyl)propanamide] | 410
8 | CC(C)(Oc1ccc(CCCC2=NN(c3ccc(OC(F)(F)F)cc3)C(=O)C23CCCC3)cc1)C(=O)O [Example 28, 2-methyl-2-(4-(3-(4-oxo-3-(4-(trifluoromethoxy)phenyl)-2,3-diazaspiro[4,4]non-1-en-1-yl)propyl)phenoxy)propanoic acid] | 0.97
9 | CC1(C)C(=O)N(c2cccc(C(F)(F)F)c2)N=C1CCCc1ccc(OC(C)(C(=O)O)c2ccccc2)cc1 (single isomer, unassigned) [54-enantiomer#1, 2-(4-(3-(4,4-dimethyl-5-oxo-1-(3-(trifluoromethyl)phenyl)-4,5-dihydro-1H-pyrazol-3-yl)propyl)phenoxy)-2-phenylpropanoic acid] | 640
10 | CC(C)(Oc1ccc(CCCC2=NN(c3ccc(C(F)(F)F)cn3)C(=O)C2(C)C)cc1)C(=O)O [Example 21, 2-(4-(3-(4,4-dimethyl-5-oxo-1-(5-(trifluoromethyl)pyridin-2-yl)-4,5-dihydro-1H-pyrazol-3-yl)propyl)phenoxy)-2-methylpropanoic acid] | 35
11 | Cc1ccc(N2N=C(CCCc3ccc(OC(C)(C)C(=O)O)cc3)C3(CCCC3)C2=O)cc1C(F)(F)F [Example 39, 2-methyl-2-(4-(3-(3-(4-methyl-3-(trifluoromethyl)phenyl)-4-oxo-2,3-diazaspiro[4,4]non-1-en-1-yl)propyl)phenoxy)propanoic acid] | 3.1
12 | CC1(C)C(=O)N(c2ccc(C(F)(F)F)cc2)N=C1CCCc1ccc(OC(C)(C(=O)O)c2ccccc2)cc1 (single isomer, unassigned) [53-enantiomer#2, 2-(4-(3-(4,4-dimethyl-5-oxo-1-(4-(trifluoromethyl)phenyl)-4,5-dihydro-1H-pyrazol-3-yl)propyl)phenoxy)-2-phenylpropanoic acid] | 2.1

More lines, in order of falling IC50, values ahead:

Row | IC50 [nM] | SMILES
13 | 34000 | CCCC1(CCC)C(=O)N(c2cccc(C(F)(F)F)c2)N=C1CCCc1ccc(OC(C)(C)C(=O)O)cc1 [Example 42, 2-methyl-2-(4-(3-(5-oxo-4,4-dipropyl-1-(3-(trifluoromethyl)phenyl)-4,5-dihydro-1H-pyrazol-3-yl)propyl)phenoxy)propanoic acid]
14 | 900 | CC(C)(Oc1ccc(CCCC2=NN(Cc3cccc(C(F)(F)F)c3)C(=O)C2(C)C)cc1)C(=O)O [Example 7, 2-(4-(3-(4,4-dimethyl-5-oxo-1-(3-(trifluoromethyl)benzyl)-4,5-dihydro-1H-pyrazol-3-yl)propyl)phenoxy)-2-methylpropanoic acid]
15 | 140 | CC(C)(Oc1ccc(CCCC2=NN(Cc3ccc(C4CCCCC4)cc3)C(=O)C2(C)C)cc1)C(=O)O [Example 17, 2-(4-(3-(1-(4-cyclohexylbenzyl)-4,4-dimethyl-5-oxo-4,5-dihydro-1H-pyrazol-3-yl)propyl)phenoxy)-2-methylpropanoic acid]
16 | 27 | CC(C)(Oc1ccc(CCCC2=NN(c3cccc(OC(F)(F)F)c3)C(=O)C23CCCC3)cc1)C(=O)O [Example 36, 2-methyl-2-(4-(3-(4-oxo-3-(3-(trifluoromethoxy)phenyl)-2,3-diazaspiro[4,4]non-1-en-1-yl)propyl)phenoxy)propanoic acid]
17 | 20 | CC(C)(Oc1ccc(CCCC2=NN(c3cccc(C(C)(C)C)c3)C(=O)C23CCCC3)cc1)C(=O)O [Example 40, 2-(4-(3-(3-(3-(tert-butyl)phenyl)-4-oxo-2,3-diazaspiro[4,4]non-1-en-1-yl)propyl)phenoxy)-2-methylpropanoic acid]
18 | 13 | CC(C)(Oc1ccc(CCCC2=NN(Cc3ccc(C(C)(C)C)cc3)C(=O)C23CCCC3)cc1)C(=O)O [Example 23, 2-(4-(3-(3-(4-(tert-butyl)benzyl)-4-oxo-2,3-diazaspiro[4,4]non-1-en-1-yl)propyl)phenoxy)-2-methylpropanoic acid]
19 | 8.9 | CC1(C)C(=O)N(c2cccc(C(F)(F)F)c2)N=C1CCCc1ccc(OC(C)(C(=O)O)c2ccccc2)cc1 (single isomer, unassigned) [54-enantiomer#2, 2-(4-(3-(4,4-dimethyl-5-oxo-1-(3-(trifluoromethyl)phenyl)-4,5-dihydro-1H-pyrazol-3-yl)propyl)phenoxy)-2-phenylpropanoic acid]
